The record followed here is patent US7355074B2, “Compounds having aromatic rings and side-chain amide-functionality and a method for transporting monovalent anions across biological membranes using the same” (The University of Maryland, priority 2003, dated 2008).

Assay [1] can be described thus: intravesicular pH of LUVs experiencing a Cl- gradient (calixarene amides). It counts as biochemical. Particulars: NaCl-loaded LUVs in isosmotic Na2SO4 buffer. Here is the method:
FIG. 8 illustrates changes in intravesicular pH upon addition of calixarene tetrabutylamide and calixarene octabutylamide to NaCl^+ loaded vesicles suspended in a sulfate phosphate buffer (emission of HPTS is used to monitor the pH changes in LUVs). At t=60 s, 20 μL of 500 μM of calixarene tetrabutylamide 2 (top trace) or the octabutylamide 3 (bottom trace) was added to 1.95 mL of a LUV suspension to give 1:100 ligand:lipid molar ratio. At t=500 s, 40 μL of 5% Triton X-100 was added. Intravesicular pH values were obtained as a function of the ratio of HPTS emission intensities at 510 nm, when excited at […]. The calibration was performed by measuring the HPTS emission intensities and the pH values of a […] HPTS solution in 10 mM phosphate buffer containing 100 mM NaCl. The calibration equation obtained (pH=1.1684×log (I0I1)+6.9807, r=0.998, where I0 is the emission intensity with excitation at […]) was used to convert the emission intensities into actual pH values.
The pH reached its maximum 250 s after addition of 2 and held constant until the liposomes were lysed with detergent. […] In effect, compound 2 moves […] along with Cl^− down the chloride gradient, consequently building a pH gradient across the membrane. Therefore, NaCl filled vesicles lose Cl^− and H^+ upon addition of 2 and become more alkaline.
Calcein-Release Assay. Calcein-loaded vesicles (100 μL of the stock solution), filled with a saline phosphate buffer (10 mM sodium phosphate, pH 6.4, […] NaCl), were suspended in 1.85 mL of an isoosmotic phosphate sulfate buffer (10 mM sodium phosphate, pH 6.4^−75 mM (Na2SO4) and placed into a fluorimetric cell. HPTS emission at 510 nm was monitored with excitation wavelengths at 403 and 460 nm simultaneously. During the experiment, 20 μL of a 0-500 μM THF solution of the compound of interest was added through an injection port. Intravesicular pH values were obtained as a function of the ratio of HPTS emission intensities at 510 nm, when excited at 403 and 460 nm. […]

Assay [2] in a line: pH-assisted fluorimetric transport assay with calixarene amides (HPTS-loaded liposomes). It counts as biochemical. Here is the method:
The ability of 1 and 2 to mediate ion flux across a lipid bilayer was studied fluorimetrically. A solution of 1 or 2 was added to a suspension of EYPC large unilamellar vesicles (LUVs) containing the pH-sensitive dye pyranine. An NaOH solution was added to the extravesicular buffer to create a gradient of approximately one pH unit. The resulting electrostatic potential, caused by proton efflux from the liposomes, can be compensated by cation influx or anion efflux, as mediated by the exogenous ligand. Ion transport across the membrane was signaled by the increase in relative fluorescence that accompanied the rise in intravesicular pH.
Liposome Preparation. EYPC HPTS-Containing LUVs, egg yolk 1-α-phosphatidylcholine (EYPC, 60 mg, […]) was dissolved in a CHCl3MeOH mixture, the solution was evaporated under reduced pressure, and the resulting thin film was dried under high vacuum for 2 h. The lipid film was hydrated in 1.2 mL of phosphate buffer (10 mM sodium phosphage, pH=6.4, 75-100 mM MX, M=Na^+, K^+, Cs^+, X=[…], SO4^2−) containing 10 μM HPTS (pyranine 8-hydroxypyrene-1,3,6-trisulfonic acid trisodium salt) for 2 h. The LUV suspension (1 mL) was submitted to high-pressure extrusion at room temperature (2) extrusions through a 0.1 μM polycarbonate membrane afforded LUVs with a diameter of 100 nm). The LUV suspension was separated from extravesicular dye by size exclusion chromatography (SEC) stationary phase: Sephadex G-10, mobile phase:phosphate buffer) and diluted with the same phosphate buffer to give a stock solution with a lipid concentration of 11 mM (assuming 100% of lipid was incorporated into liposomes).
Fluorimetric Transport Assays. pH-Assisted Transport Assays. Typically, 100 μL of HPTS-loaded vesicles (stock solution) was suspended in 1.85 mL of the corresponding buffer and placed into a fluorimetric cell. HPTS emission at 510 nm was monitored with excitation wavelengths at 403 and 460 nm simultaneously. During the experiment, 20 μL of a 0-10 mM THF solution of the compound of interest was added through an injection port, followed by injection of 21 μL of 0.5 M aqueous NaOH. Addition of the NaOH caused a pH increase of approximately 1 pH unit in the extravesicular buffer. Maximal changes in dye emission were obtained at the end of each experiment by lysis of the liposomes with detergent (40 μL of 5% aqueous Triton x100). The final transport trace was obtained as a ratio of the emission intensities monitored at 460 and 403 nm and normalized to 100% of transport.

The nature of assay [3]: 1H NMR binding experiment in CDCl3, HCl extraction. Here is the method: FIG. 7 illustrates a series of […] spectra (400 mHz, CDCl3, 22° C.) of calixarene tetrabutylamide in the presence of different species: (A) the compound alone (5 mm); (B) the compound with 1 equiv. of Bu4 NCl; (C) the compound after washing CDCl3 solution of the compound with an aqueous solution of 0.5 m HCl; (D) after washing CDCl3 solution of the compound with an aqueous solution of 0.5 M H2SO4.
To obtain evidence for Cl^− binding by 2, ^1H NMR experiments were run in CDCl3 using n-Bu4-NCl and HCl as Cl^− sources. Anion receptors usually show chemical shift perturbation upon anion complexation, particularly for amide NH protons that hydrogen bond to the anion. […] Calix[4]arene tetrabutylamide 2 does, however, bind HCl. Thus, shaking a CDCl3 solution of 2 with aqueous HCl led to disappearance of the amide NH proton and a significant upfield shift of the […] protons (FIG. 4c).

Assay [4] is described as follows: pH-stat fluorescent transport assay with oligophenoxyacetamides (HPTS-loaded liposomes). It is filed as biochemical. The conditions noted are these: 100 mM NaCl inside and outside; 50 μm (10 mol % ligand to lipid ratio). The method, then:
FIGS. 1A and 1B are derived from of pH-stat fluorescent assays with oligophenoxyacetamide compounds 1-6 described herein. Suspensions of EYPC LUVs containing the pH sensitive dye pyranine (ex 405 nm and 460 nm em 510 nm) in a phosphate buffer were used (0.5 mM of lipid, 10 mM NanH3-nPO4 n=1, 2, pH 6.4 100 mM NaCl inside and outside) (A) illustrates initial pseudo-first order rate constants in the presence of 5 μm of ionophores 1-6 (1 mol % injection of 20 μl of 0.5 mM DMSO solution of 1-6 into 1.9 mL of vesicular suspension was followed by injection of 21 μl of 0.5 M NaOH and final lysis of liposomes with Triton X-100; (B) illustrates initial pseudo-first order rate constants assessed for various concentrations of oligomeric ionophores 2-6. The same experimental protocol as in (A) was used. Legend for traces denotes use of oligocompounds 2, 3, 4, 5, 6.
Liposome Preparation for Fluorimetric Assays. Egg yolk L-α-phosphatidylcholine (EYPC ethanol solution, […], 79 μmol) was dissolved in a CHCl3/MeOH mixture, the solution was evaporated under reduced pressure and the resulting thin film was dried under high vacuum for 2 h. The lipid film was hydrated in 1.2 mL of phosphate buffer (10 mM sodium phosphate, pH=6.4, 75-100 mM MnX, M=N^+, K^+, X=Cl^−, SO4^2−, n=1,2) containing 10 μM HPTS (pyranine, 8-hydroxypyrene-1,3,6-trisulfonic acid trisodium salt) for 40 min. During hydration, the suspension was submitted to 5 freeze-thaw cycle (liquid nitrogen, water at rt). The large multilamellar liposome suspension (1 mL) was submitted to high-pressure extrusion at rt (21 extrusions through a 0.1 μm polycarbonate membrane afforded a suspension of LUVs with an average diameter of 100 nm). The LUV suspension was separated from extravesicular dye by size exclusion chromatography (SEC) (stationary phase: Sephadex G-10, mobile phase: phosphate buffer) and diluted with the same phosphate buffer to give a stock solution with a lipid concentration of 11 mM (assuming 100% of lipid was incorporated into liposomes).
pH-state transport assays. Typically, 100 μL of HPTS-loaded vesicles (stock solution) was suspended in 1.9 mL of the corresponding buffer and placed into a fluorimetric cell. The emission of HPTS at 510 nm was monitored with excitation wavelengths at 403 and 460 nm simultaneously. During the experiment, 20 μL of a 0-10 mM DMSO solution of the compounds of interest was added (through an injection port), followed by injection of 21 μL of 0.5 M aqueous NaOH. […] Maximal possible changes in dye emission were obtained at the end of each experiment by lysis of the liposomes with detergent (40 μL of 5% aqueous Triton X100). The final transport trace was obtained as a ratio of the emission intensities monitored at 460 and 403 nm and normalized to 100% of transport. Pseudo-first order rate constants were calculated from slopes of the plot of In([H^+ins]−[H^+out]) versus time, here [H^+ins] and [H^+out] are the intravesicular and extravesicular proton concentrations, respectively. The [H^+out] was assumed to remain constant over the course of the experiment, while [H^+ins] values were calculated for each point from the HPTS emission intensities according to the calibration equation pH=1.1684·log(Io/Il)+6.9807, where Io is the emission intensity with excitation at 460 nm and Il is emission intensity with excitation at 403 nm. The calibration was performed by measuring the HPTS emission intensities and the pH values of a […] HPTS solution in 10 mM phosphate buffer containing 100 mM NaCl (see FIG. s3). The absolute values for rate constants varied depending on the age of the vesicular solution and the actual stock solution of liposomes used.

Each structure is given as a SMILES string. Marks after values point to notes of the source that are not given here.

Regarding `CCCCN(CCCC)C(=O)COc1c2cccc1Cc1cccc(c1OCC(=O)N(CCCC)CCCC)Cc1cccc(c1OCC(=O)N(CCCC)CCCC)Cc1cccc(c1OCC(=O)N(CCCC)CCCC)C2` [calix[4]arene octabutylamide 3, Calix[4]arene Octabutylamide], the “change of intravesicular pH / pH gradient formation” value in assay [1] is recorded as “did not result in formation of a pH gradient”. For the same compound, in assay [2], the “drop in rate constant on changing extravesicular electrolyte from NaCl to CsCl” value turned out to be 3.5 fold and the “transport activity when buffer changed from NaCl to Na2SO4” value is “still mediated significant ion transport”. In assay [2] (5 μM, 100 mM Na2SO4 inside pH 6.4 and outside pH 7.4, not corrected for unmediated exchange), the “Initial Pseudo-first Order Transport Rate Constants, Na2SO4” value was 9.1^b,d ×10^−3 s^−1. In assay [2] (5 μM, 100 mM NaCl inside pH 6.4, 100 mM CsCl outside pH 7.4, not corrected for unmediated exchange), the “Initial Pseudo-first Order Transport Rate Constants, CsCl” value is reported as 5.4^b,c ×10^−3 s^−1. In addition, in assay [2] (5 μM, 100 mM NaCl inside pH 6.4, 100 mM KCl outside pH 7.4, not corrected for unmediated exchange), the “Initial Pseudo-first Order Transport Rate Constants, KCl” value is 12^b,c ×10^−3 s^−1. Besides, in assay [2] (5 μM, 100 mM NaCl inside pH 6.4, 100 mM NaCl outside pH 7.4, not corrected for unmediated exchange), the “Initial Pseudo-first Order Transport Rate Constants, NaCl” value is 19^b,c ×10^−3 s^−1. In addition, the “rate constant k of ion transport” value in assay [2] (Na2SO4 loaded vesicles in isotonic buffer) is 0.0091 s⁻¹. The “rate constant k of ion transport” value in assay [2] (NaCl buffer) was 0.019 s⁻¹. For the same compound, the “cation selectivity of ion transport” value in assay [2] (buffers containing Na, K or Cs) is “discriminates between monovalent cations”.

As to `CCCCNC(=O)COc1ccccc1` [Monomer 1, N-butyl-2-phenoxyacetamide], the HCl binding entry in assay [3] is recorded as “no HCl binding”. In addition, the transport activity result in assay [4] was “some activity”. For the same compound, in assay [2] (50 μM), the ion transport result is reported as “no ion transport”.
